From PubChem BioAssay (NCI)
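Protocol summary: plate cells (96-well), add compound at 5 concentrations, incubate 48 h, interpolate endpoints linearly. GI50 is the concentration that inhibits growth by half. At the TGI there is no net growth.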

Assays:
Assay in all cases: growth of human tumour cells (NCI), 48 h
[1] = tested on: HOP-92 NSCLC
[2] = tested on: 786-0 renal
[3] = tested on: SK-MEL-2 melanoma
[4] = tested on: CAKI-1 renal
[5] = tested on: SF-295 CNS
[6] = tested on: SF-268 CNS
[7] = tested on: TK-10 renal
[8] = tested on: KM12 colon
[9] = tested on: SK-OV-3 ovarian
[10] = tested on: RPMI-8226 leukemia
[11] = tested on: HOP-62 NSCLC
[12] = tested on: NCI-H460 lung
[13] = tested on: UACC-62 melanoma
[14] = tested on: MCF7 breast
[15] = tested on: SW-620 colon
[16] = tested on: OVCAR-4 ovarian
[17] = tested on: MOLT-4 leukemia
[18] = tested on: T-47D breast
[19] = tested on: SNB-19 CNS
[20] = tested on: NCI-H226 lung
[21] = tested on: IGROV1 ovarian
[22] = tested on: HCT-15 colon
[23] = tested on: DU-145 prostate
[24] = tested on: MDA-MB-435
[25] = tested on: ACHN renal
[26] = tested on: OVCAR-8 ovarian
[27] = tested on: SN12C renal
[28] = tested on: SNB-75 CNS
[29] = tested on: NCI/ADR-RES ovarian
[30] = tested on: MALME-3M melanoma
[31] = tested on: A549 NSCLC
[32] = tested on: SF-539 CNS
[33] = tested on: EKVX NSCLC
[34] = tested on: M14 melanoma
[35] = tested on: SK-MEL-28 melanoma
[36] = tested on: K-562 leukemia
[37] = tested on: NCI-H522 lung
[38] = tested on: HT29 colon
[39] = tested on: BT-549 breast
[40] = tested on: HCT-116 colon
[41] = tested on: PC-3 prostate
[42] = tested on: COLO 205 colon
[43] = tested on: SK-MEL-5 melanoma
[44] = tested on: HCC-2998 colon
[45] = tested on: HL-60(TB) leukemia
[46] = tested on: OVCAR-5 ovarian
[47] = tested on: SR leukemia
[48] = tested on: NCI-H23 lung
[49] = tested on: OVCAR-3 ovarian
[50] = tested on: CCRF-CEM leukemia
[51] = tested on: U251 CNS
[52] = tested on: MDA-MB-231 breast
[53] = tested on: UO-31 renal
[54] = tested on: RXF 393 renal
[55] = tested on: UACC-257 melanoma
[56] = tested on: LOX IMVI melanoma
[57] = tested on: A498 renal

## CCOC(=O)c1c2c(n(Cc3ccc(Cl)cc3Cl)c1C)-c1nc(Cc3ccccc3)[nH]c1C(=O)C2=O
[1]
  GI50: 1.62 µM
  TGI: 3.06 µM
[2]
  GI50: 1.82 µM
  TGI: 3.47 µM
[3]
  GI50: 2.83 µM
  TGI: 9.2 µM
[4]
  GI50: 2.31 µM
  TGI: 4.01 µM
[5]
  GI50: 1.99 µM
  TGI: 4.59 µM
[6]
  GI50: 1.94 µM
  TGI: 4.28 µM
[7]
  GI50: 2.12 µM
  TGI: 3.65 µM
[8]
  GI50: 1.47 µM
  TGI: 2.89 µM
[9]
  GI50: 5.02 µM
  TGI: 19.3 µM
[10]
  GI50: 2.25 µM
  TGI: 4.65 µM
[11]
  GI50: 2.32 µM
  TGI: 5.48 µM
[12]
  GI50: 2.27 µM
  TGI: 4.9 µM
[13]
  GI50: 1.82 µM
  TGI: 3.48 µM
[14]
  GI50: 2.55 µM
  TGI: 6.08 µM
[15]
  GI50: 2.11 µM
  TGI: 4.07 µM
[16]
  GI50: 1.87 µM
  TGI: 4.8 µM
[17]
  GI50: 1.94 µM
  TGI: 4.87 µM
[18]
  GI50: 2.65 µM
  TGI: 33.3 µM
[19]
  GI50: 3.51 µM
  TGI: 45.2 µM
[20]
  GI50: 2.19 µM
  TGI: 4.68 µM
[21]
  GI50: 2.31 µM
  TGI: 5.07 µM
[22]
  GI50: 2.15 µM
  TGI: 4.64 µM
[23]
  GI50: 1.78 µM
  TGI: 3.3 µM
[24]
  GI50: 1.99 µM
  TGI: 3.75 µM
[25]
  GI50: 1.75 µM
  TGI: 3.17 µM
[26]
  GI50: 3.49 µM
  TGI: 50.4 µM
[27]
  GI50: 2.22 µM
  TGI: 4.75 µM
[28]
  GI50: 1.88 µM
  TGI: 3.63 µM
[29]
  GI50: 3.19 µM
  TGI: 10.6 µM
[30]
  GI50: 2 µM
  TGI: 3.66 µM
[31]
  GI50: 3.84 µM
  TGI: > 100 µM
[32]
  GI50: 2.14 µM
  TGI: 3.97 µM
[33]
  GI50: 2.24 µM
  TGI: 4.49 µM
[34]
  GI50: 2.3 µM
  TGI: 5.05 µM
[35]
  GI50: 1.69 µM
  TGI: 3.3 µM
[36]
  GI50: 1.97 µM
  TGI: 5.25 µM
[37]
  GI50: 2.2 µM
  TGI: 4.68 µM
[38]
  GI50: 2.72 µM
  TGI: 8.61 µM
[39]
  GI50: 2.07 µM
  TGI: 3.87 µM
[40]
  GI50: 1.68 µM
  TGI: 3.07 µM
[41]
  GI50: 1.92 µM
  TGI: 4.9 µM
[42]
  GI50: 2.42 µM
  TGI: 5.85 µM
[43]
  GI50: 1.8 µM
  TGI: 3.27 µM
[44]
  GI50: 1.93 µM
  TGI: 3.78 µM
[45]
  GI50: 1.57 µM
  TGI: 3.71 µM
[46]
  GI50: 2.25 µM
  TGI: 4.56 µM
[47]
  GI50: 1.78 µM
  TGI: 3.82 µM
[48]
  GI50: 2.03 µM
  TGI: 4.29 µM
[49]
  GI50: 1.8 µM
  TGI: 3.6 µM
[50]
  GI50: 1.81 µM
  TGI: 4.45 µM
[51]
  GI50: 2.11 µM
  TGI: 4.62 µM
[52]
  GI50: 1.93 µM
  TGI: 3.56 µM

## COc1cc(-c2cncn2-c2ccc(-c3nc4ccc(F)cc4s3)cc2)ccc1F
[1]
  GI50: 5.47 µM
  TGI: 91.8 µM
[2]
  GI50: 36.1 µM
  TGI: > 100 µM
[3]
  GI50: 39.7 µM
  TGI: > 100 µM
[5]
  GI50: 12.7 µM
  TGI: > 100 µM
[53]
  GI50: 16.5 µM
  TGI: > 100 µM
[6]
  GI50: 31.2 µM
  TGI: > 100 µM
[7]
  GI50: 38.8 µM
  TGI: > 100 µM
[8]
  GI50: 6.4 µM
  TGI: > 100 µM
[9]
  GI50: > 100 µM
  TGI: > 100 µM
[10]
  GI50: 4.11 µM
  TGI: > 100 µM
[54]
  GI50: 13.5 µM
  TGI: > 100 µM
[11]
  GI50: 40.7 µM
  TGI: > 100 µM
[12]
  GI50: 5.7 µM
  TGI: 20.7 µM
[13]
  GI50: 8.67 µM
  TGI: > 100 µM
[14]
  GI50: 23.5 µM
  TGI: > 100 µM
[15]
  GI50: 7.81 µM
  TGI: > 100 µM
[16]
  GI50: 11.4 µM
  TGI: > 100 µM
[17]
  GI50: 3.41 µM
  TGI: > 100 µM
[18]
  GI50: 7.98 µM
  TGI: > 100 µM
[19]
  GI50: > 100 µM
  TGI: > 100 µM
[20]
  GI50: 49.3 µM
  TGI: > 100 µM
[21]
  GI50: 15.4 µM
  TGI: 47.7 µM
[22]
  GI50: 82.3 µM
  TGI: > 100 µM
[23]
  GI50: 14.3 µM
  TGI: 73.3 µM
[24]
  GI50: 17.1 µM
  TGI: > 100 µM
[25]
  GI50: 29.1 µM
  TGI: > 100 µM
[26]
  GI50: 15.2 µM
  TGI: > 100 µM
[27]
  GI50: 31.9 µM
  TGI: > 100 µM
[28]
  GI50: 20.6 µM
  TGI: 52.2 µM
[29]
  GI50: 30.6 µM
  TGI: > 100 µM
[30]
  GI50: 11.1 µM
  TGI: > 100 µM
[31]
  GI50: 12.3 µM
  TGI: > 100 µM
[32]
  GI50: 75.9 µM
  TGI: > 100 µM
[34]
  GI50: 33.4 µM
  TGI: > 100 µM
[35]
  GI50: 35.1 µM
  TGI: > 100 µM
[36]
  GI50: 3.93 µM
  TGI: > 100 µM
[37]
  GI50: 9.9 µM
  TGI: 37.2 µM
[38]
  GI50: 10.8 µM
  TGI: > 100 µM
[39]
  GI50: 11.5 µM
  TGI: 79 µM
[40]
  GI50: 4.36 µM
  TGI: 38.7 µM
[41]
  GI50: 3.47 µM
  TGI: > 100 µM
[55]
  GI50: 4.11 µM
  TGI: > 100 µM
[42]
  GI50: 56.8 µM
  TGI: > 100 µM
[43]
  GI50: 12.1 µM
  TGI: > 100 µM
[56]
  GI50: 35.9 µM
  TGI: > 100 µM
[44]
  GI50: > 100 µM
  TGI: > 100 µM
[45]
  GI50: 2.5 µM
  TGI: 7.37 µM
[46]
  GI50: > 100 µM
  TGI: > 100 µM
[47]
  GI50: 4.99 µM
  TGI: > 100 µM
[57]
  GI50: 0.0432 µM
  TGI: 16.9 µM
[48]
  GI50: 8.25 µM
  TGI: > 100 µM
[49]
  GI50: 5.71 µM
  TGI: 37.3 µM
[50]
  GI50: 6.92 µM
  TGI: > 100 µM
[51]
  GI50: 12.6 µM
  TGI: > 100 µM
[52]
  GI50: 32.2 µM
  TGI: > 100 µM
